From patent US10344060B2 (priority 2013, dated 2019)

Target: hNav1.7 (Homo sapiens, UniProt Q15858)
Assay: cell-based
Assay type: cell-based
Settings: for IC50: Table 12, PatchXpress, tonic block, read-out: PX hNav1.7 Tonic IC50
[1] = ratio of PX tonic IC50 values, Table 11

Sequence of hNav1.7 (Q15858 whole entry): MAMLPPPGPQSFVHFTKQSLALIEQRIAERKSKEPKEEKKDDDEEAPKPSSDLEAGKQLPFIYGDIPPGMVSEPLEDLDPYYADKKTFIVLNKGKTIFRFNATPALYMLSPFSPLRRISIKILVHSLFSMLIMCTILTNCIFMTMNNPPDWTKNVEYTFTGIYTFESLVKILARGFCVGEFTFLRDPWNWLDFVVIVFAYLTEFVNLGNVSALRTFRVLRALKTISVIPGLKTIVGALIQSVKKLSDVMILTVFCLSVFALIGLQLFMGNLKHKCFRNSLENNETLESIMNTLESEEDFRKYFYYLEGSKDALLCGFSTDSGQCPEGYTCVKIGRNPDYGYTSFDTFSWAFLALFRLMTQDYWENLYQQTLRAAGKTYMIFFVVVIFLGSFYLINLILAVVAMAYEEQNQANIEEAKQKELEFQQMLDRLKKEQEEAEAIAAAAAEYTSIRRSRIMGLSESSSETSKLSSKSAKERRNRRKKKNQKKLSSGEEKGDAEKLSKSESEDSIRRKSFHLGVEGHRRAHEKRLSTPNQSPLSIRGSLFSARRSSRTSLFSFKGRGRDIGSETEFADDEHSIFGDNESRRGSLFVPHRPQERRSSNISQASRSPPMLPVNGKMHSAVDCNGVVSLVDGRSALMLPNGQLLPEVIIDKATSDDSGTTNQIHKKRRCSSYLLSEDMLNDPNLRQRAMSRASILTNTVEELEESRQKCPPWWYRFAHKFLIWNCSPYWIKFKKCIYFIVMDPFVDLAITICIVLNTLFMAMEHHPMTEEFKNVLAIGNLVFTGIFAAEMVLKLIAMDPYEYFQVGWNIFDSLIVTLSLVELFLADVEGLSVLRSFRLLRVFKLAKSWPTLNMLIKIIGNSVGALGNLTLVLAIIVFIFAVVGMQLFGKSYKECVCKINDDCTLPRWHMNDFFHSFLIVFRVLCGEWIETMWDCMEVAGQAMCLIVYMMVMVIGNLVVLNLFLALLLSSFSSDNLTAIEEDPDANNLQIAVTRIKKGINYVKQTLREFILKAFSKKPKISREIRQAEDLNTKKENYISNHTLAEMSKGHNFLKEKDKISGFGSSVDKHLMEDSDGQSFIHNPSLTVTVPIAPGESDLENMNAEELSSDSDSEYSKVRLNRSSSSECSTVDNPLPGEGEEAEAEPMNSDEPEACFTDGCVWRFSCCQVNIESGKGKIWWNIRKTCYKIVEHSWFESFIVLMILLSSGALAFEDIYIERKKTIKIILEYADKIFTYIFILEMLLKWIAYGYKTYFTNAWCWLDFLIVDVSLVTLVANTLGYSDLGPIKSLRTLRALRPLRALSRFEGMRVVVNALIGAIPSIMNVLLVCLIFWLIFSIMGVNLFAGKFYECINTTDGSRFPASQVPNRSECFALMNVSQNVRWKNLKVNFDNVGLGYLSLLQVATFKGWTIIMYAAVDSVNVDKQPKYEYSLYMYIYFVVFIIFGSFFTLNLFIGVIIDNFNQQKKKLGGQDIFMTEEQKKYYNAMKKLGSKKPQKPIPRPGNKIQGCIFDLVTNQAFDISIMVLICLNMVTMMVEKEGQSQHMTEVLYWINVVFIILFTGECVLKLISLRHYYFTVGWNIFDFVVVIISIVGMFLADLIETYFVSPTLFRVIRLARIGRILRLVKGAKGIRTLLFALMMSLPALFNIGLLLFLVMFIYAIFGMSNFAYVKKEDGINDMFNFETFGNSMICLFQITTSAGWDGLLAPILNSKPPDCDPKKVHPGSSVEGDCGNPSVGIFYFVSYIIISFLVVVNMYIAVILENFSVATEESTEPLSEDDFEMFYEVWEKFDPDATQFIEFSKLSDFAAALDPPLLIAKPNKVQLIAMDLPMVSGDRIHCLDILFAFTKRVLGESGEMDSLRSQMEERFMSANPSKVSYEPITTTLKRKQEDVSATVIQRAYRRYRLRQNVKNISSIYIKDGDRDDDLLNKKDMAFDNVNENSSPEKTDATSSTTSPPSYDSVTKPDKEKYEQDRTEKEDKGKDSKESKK

SMILES | Nav1.4/Nav1.7 [1] | Nav1.5/Nav1.7 [1] | IC50 [µM]
CCCC[C@@H]1NC(=O)[C@H](Cc2c[nH]c3ccccc23)NC(=O)[C@H](CCCCN)NC(=O)[C@H](CCC(N)=O)NC(=O)[C@@H](NC(=O)[C@H](Cc2ccc(O)cc2)NC(=O)[C@H](CCC)NC(=O)[C@H](N)CC(C)C)CSSC[C@@H]2NC(=O)[C@@H]3CSSC[C@@H](C(=O)N[C@@H](CCCNC(=N)N)C(=O)N[C@@H](CCCCN)C(=O)N[C@@H](CCC(=O)O)C(=O)N[C@H](C(N)=O)[C@@H](C)CC)NC(=O)[C@H](Cc4c[nH]c5ccccc45)NC(=O)[C@H](CC(C)C)NC(=O)[C@H](CCCCN)NC(=O)[C@H](CSSC[C@H](NC(=O)[C@H]([C@@H](C)O)NC(=O)[C@H](Cc4c[nH]c5ccccc45)NC1=O)C(=O)N[C@@H](CC(=O)O)C(=O)N[C@@H](CO)C(=O)N[C@@H](CCCCN)C(=O)N[C@@H](CCCNC(=N)N)C(=O)N[C@@H](CCCCNC(=O)CCOCCOCCOCCOCCOCCOCCOCCOCCOCCOCCOCCOCCN)C(=O)N3)NC(=O)[C@H](CCCNC(=N)N)NC(=O)[C@H](CC(C)C)NC(=O)CNC(=O)[C@H](CCC(=O)O)NC2=O [compound 472] | 42 | 349 | –
CCCC[C@@H]1NC(=O)[C@H](Cc2c[nH]c3ccccc23)NC(=O)[C@H](CCCCN)NC(=O)[C@H](CCC(N)=O)NC(=O)[C@@H](NC(=O)[C@H](Cc2ccccc2)NC(=O)[C@@H](N)CC#N)CSSC[C@@H]2NC(=O)[C@@H]3CSSC[C@@H](C(=O)N[C@@H](CCCNC(=N)N)C(=O)N[C@@H](CCCCN)C(=O)N[C@@H](CCC(=O)O)C(=O)N[C@H](C(N)=O)[C@@H](C)CC)NC(=O)[C@H](Cc4c[nH]c5ccccc45)NC(=O)[C@H](CC(C)C)NC(=O)[C@H](CCCCN)NC(=O)[C@H](CSSC[C@H](NC(=O)[C@H]([C@@H](C)O)NC(=O)[C@H](Cc4c[nH]c5ccccc45)NC1=O)C(=O)N[C@@H](CC(=O)O)C(=O)N[C@@H](CO)C(=O)N[C@@H](CCCCN)C(=O)N[C@@H](CCCNC(=N)N)C(=O)N[C@@H](C)C(=O)N3)NC(=O)[C@H](CCCNC(=N)N)NC(=O)[C@H](CC(C)C)NC(=O)CNC(=O)[C@H](CCCCNC(=O)CCOCCOCCOCCOCCOCCOCCOCCOCCOCCOCCOCCOCCN)NC2=O [compound 551] | 13 | – | –
C#CC[C@H](N)C(=O)N[C@@H](Cc1ccc(O)cc1)C(=O)N[C@H]1CSSC[C@@H]2NC(=O)[C@@H]3CSSC[C@@H](C(=O)N[C@@H](CCCNC(=N)N)C(=O)N[C@@H](CCCCN)C(=O)N[C@@H](CCC(=O)O)C(=O)N[C@H](C(N)=O)[C@@H](C)CC)NC(=O)[C@H](Cc4c[nH]c5ccccc45)NC(=O)[C@H](CC(C)C)NC(=O)[C@H](CCCCN)NC(=O)[C@H](CSSC[C@H](NC(=O)[C@H]([C@@H](C)O)NC(=O)[C@H](Cc4c[nH]c5ccccc45)NC(=O)[C@H](CCCC)NC(=O)[C@H](Cc4c[nH]c5ccccc45)NC(=O)[C@H](CCCCN)NC(=O)[C@H](CCC(N)=O)NC1=O)C(=O)N[C@@H](CC(=O)O)C(=O)N[C@@H](CO)C(=O)N[C@@H](CCCCN)C(=O)N[C@@H](CCCNC(=N)N)C(=O)N[C@@H](C)C(=O)N3)NC(=O)[C@H](CCCNC(=N)N)NC(=O)[C@H](CC(C)C)NC(=O)[C@H](CCC(=O)O)NC(=O)[C@H](CCC(=O)O)NC2=O [compound 719] | – | – | > 1
C#CC[C@@H]1NC(=O)[C@@H]2CSSC[C@H](NC(=O)[C@H](Cc3ccc(O)cc3)NC(=O)[C@@H](N)CC#N)C(=O)N[C@@H](CCC(N)=O)C(=O)N[C@@H](CCCCN)C(=O)N[C@@H](Cc3c[nH]c4ccccc34)C(=O)N[C@@H](CCCC)C(=O)N[C@@H](Cc3c[nH]c4ccccc34)C(=O)N[C@@H]([C@@H](C)O)C(=O)N[C@H]3CSSC[C@H](NC(=O)[C@H](CCCNC(=N)N)NC(=O)[C@H](CC(C)C)NC(=O)CNC1=O)C(=O)N[C@@H](CCCCN)C(=O)N[C@@H](CC(C)C)C(=O)N[C@@H](Cc1c[nH]c4c(Br)cccc14)C(=O)N[C@H](C(=O)N[C@@H](CCCNC(=N)N)C(=O)N[C@@H](CCCCN)C(=O)N[C@@H](CCC(=O)O)C(=O)N[C@H](C(N)=O)[C@@H](C)CC)CSSC[C@H](NC(=O)[C@H](C)NC(=O)[C@H](CCCNC(=N)N)NC(=O)[C@H](CCCCN)NC(=O)[C@H](CO)NC(=O)[C@H](CC(=O)O)NC3=O)C(=O)N2 [compound 875] | – | – | 0.0253
